# Measured values as given in US7642367B2, “Diamino-functional chalcones” (Lica Pharmaceuticals A/S, priority 2002, dated 2010).
# Columns and labels:
# [1] = test system: Bacteroides fragilis, Clostridium perfringens, Clostridium difficele; format: cell-based; conditions: single concentration of compound (100 μM)
# L. major promastigotes = test: Leishmania promastigote assay (3H-thymidine)
# [2] = Determination of solubility in phosphate buffer pH 7.4; format: physicochemical; conditions: aqueous buffer at pH 7.4
# Procedure: Solubility of the compounds was determined by preparing a saturated solution of compound in 0.3 M phosphate buffer (pH 7.4±0.3) in a brown glass tube. The suspensions were rotated slowly for 24 hours. Aliquots were centrifuged for 10 minutes at 14.000 rpm and supernatants were diluted in 40% (v/v) acetonitrile in water prior to HPLC analysis. Concentrations of analytes were quantified against a standard curve and used as term of solubility.
# The HPLC-UV method used for the assessment of solubility is the same as used in the in vitro metabolism assay.
# [3] = Determination of metabolic stability (liver microsomes); format: in vitro ADME, Wistar rat; conditions: rat liver microsomes, 20 μM, 15 min at 37° C.
# Procedure: incubations were performed with Wistar rat liver microsomes (0.25 mg/ml) in 2% sodium bicarbonate solution. NADP (0.13 mg/ml), glucose-6-phosphate (0.63 mg/ml) and glucose-6-phosophate dehydrogenase (0.38 units/ml) were used as NADPH generation system and UDPGA (0.48 mg/ml) was added to include the phase II reaction, glucuronic acid conjugation, in the assay. After 5 minutes of pre-incubation the reaction was started by addition of the test article to give a final concentration of 20 μM. Samples were incubated for 15 min at 37° C. and the reactions were terminated by addition of equal volumes of acetonitrile. Blank incubations were performed at the same concentration but without addition of microsomes. Both blank and microsome-containing samples were made in replicats of three. Prior to analysis samples were centrifuged for 10 min. at 3500 rpm, HPLC system:
# Initial conditions were 40% mobile phase A (acetonitrile) and 60% mobile phase B (10 mM ammonium acetate pH 9.5). During the first 20 minutes, the mobile phase was changed via a linear gradient to 90% A and 10% B. This was followed by a 5 minutes linear gradient to initial conditions, which were maintained for 5 min. The flow rate was 0.20 ml/min and injection volume 10 μl.
# [4] = test system: Plasmodium falciparum 3D7; test: Plasmodium falciparum assay (3H-phenylalanine labelling); format: cell-based; conditions: Plasmodium falciparum 3D7 (Table 2); read-out: IC50
# [5] = test system: Enterococcus faecalis ATCC29212; test: MIC determination in broth microdilution assay
# [6] = test system: Staphylococcus intermedius #2357 (clinical isolate); test: MIC determination in broth microdilution assay
# [7] = test system: Streptococcus pneumoniae #998 (clinical isolate); test: MIC determination in broth microdilution assay
# [8] = test system: Enterococcus faecium #17501 (vancomycin-resistant clinical isolate); test: MIC determination in broth microdilution assay
# [9] = test system: Staphylococcus aureus ATCC33591 (resistant to methicillin); test: MIC determination in broth microdilution assay
# [10] = test system: Staphylococcus aureus ATCC29213; test: MIC determination in broth microdilution assay
# Eschericia coli ESS = test: MIC determination in broth microdilution assay; conditions: H: Eschericia coli ESS; NA: no activity
# [11] = D: Enterococcus faecalis ATCC29212, NA: no activity
# [12] = C: Staphylococcus intermedius #2357, NA: no activity
# [13] = F: Streptococcus pneumoniae #998, NA: no activity
# [14] = E: Enterococcus faecium #17501 (vancomycin-resistant), NA: no activity
# [15] = B: Staphylococcus aureus ATCC33591 (resistant to methicillin), NA: no activity
# [16] = A: Staphylococcus aureus ATCC29213, NA: no activity
structure (smiles),measurement,setting,value
"CCCCN(CCCC)c1ccc(OC)c(/C=C/C(=O)c2ccccc2NCCN(C)C)c1 [B038, (E)-3-(5-Dibutylamino-2-methoxy-phenyl)-1-[2-(2-dimethylamino-ethylamino)-phenyl]-propenone]",activity against anaerobic bacteria,[1],activity against all microorganisms within the test panel
"COc1cc(/C=C/C(=O)c2cccc(N(C)CCN(C)C)c2)cc(OC)c1 [B047, (E)-3-(3,5-Dimethoxy-phenyl)-1-{3-[(2-dimethylamino-ethyl)-methyl-amino]-phenyl}-propenone]",times more potent than LicA,"L. major promastigotes; Leishmania Major, dose-response curve FIG. 7",10
"Cc1ccccc1-c1ccc(N(C)CCN(C)C)c(/C=C/C(=O)c2ccccc2CN(C)C)c1 [B148, (E)-3-{4-[(2-Dimethylamino-ethyl)-methyl-amino]-2′-methyl-biphenyl-3-yl}-1-(2-dimethylaminomethyl-phenyl)-propenone]",Solubility,[2],3300 µg/mL
"Cc1cc(C)cc(-c2ccc(N(C)CCN(C)C)c(/C=C/C(=O)c3cccc(NCCN(C)C)c3)c2)c1 [B113, (E)-1-[3-(2-Dimethylamino-ethylamino)-phenyl]-3-{4-[(2-dimethylamino-ethyl)-methyl-amino]-3′,5′-dimethyl-biphenyl-3-yl}-propenone]",Metabolic turn-over in vitro,[3],4%
"Cc1ccccc1-c1ccc(N2CCN(C)CC2)c(/C=C/C(=O)c2ccc(O)cc2)c1 [B209, (E)-1-(4-Hydroxy-phenyl)-3-[2′-methyl-4-(4-methyl-piperazin-1-yl)-biphenyl-3-yl]-propenone]",IC50,[4],300 nM
"CN(C)CCNc1ccc(C(=O)/C=C/c2ccc(Cl)cc2Cl)cc1 [B022, (E)-3-(2,4-Dichloro-phenyl)-1-[4-(2-dimethylamino-ethylamino)-phenyl]-propenone]",IC50,L. major promastigotes; L. major,800 nM
same,activity against anaerobic bacteria,[1],activity against all microorganisms within the test panel
"COc1ccccc1-c1ccc(/C=C/C(=O)c2ccccc2CN(C)CCN(C)C)c(N2CCN(C)CC2)c1 [B216, (E)-1-(2-{[(2-Dimethylamino-ethyl)-methyl-amino]-methyl}-phenyl)-3-[2′-methoxy-3-(4-methyl-piperazin-1-yl)-biphenyl-4-yl]-propenone]",Metabolic turn-over in vitro,[3],6%
"CN(C)CCNc1ccc(C(=O)/C=C/c2ccc3ccccc3n2)cc1 [B067, (E)-1-[4-(2-Dimethylamino-ethylamino)-phenyl]-3-quinolin-2-yl-propenone]",IC50,L. major promastigotes; L. major,900 nM
"COc1ccc(C(=O)/C=C/c2cc(-c3cc(C)cc(C)c3)ccc2N(C)CCN(C)C)c(CN(C)C)c1 [B114, (E)-3-{4-[(2-Dimethylamino-ethyl)-methyl-amino]-3′,5′-dimethyl-biphenyl-3-yl}-1-(2-dimethylaminomethyl-4-methoxy-phenyl)-propenone]",Solubility,[2],4300 µg/mL
"CCCN(CCC)c1cccc(/C=C/C(=O)c2ccccc2NCCN(C)C)c1 [B035, (E)-1-[2-(2-Dimethylamino-ethylamino)-phenyl]-3-(3-dipropylamino-phenyl)-propenone]",activity against anaerobic bacteria,[1],activity against all microorganisms within the test panel
"CN(C)CCCNc1cc(Br)cc(/C=C/C(=O)c2ccccc2CN(C)C)c1 [B126, (E)-3-[3-Bromo-5-(3-dimethylamino-propylamino)-phenyl]-1-(2-dimethylaminomethyl-phenyl)-propenone]",Solubility,[2],8300 µg/mL
"COc1ccccc1C(=O)/C=C/c1ccccc1N(C)CCN(C)C [B056, (E)-3-{2-[(2-Dimethylamino-ethyl)-methyl-amino]-phenyl}-1-(2-methoxy-phenyl)-propenone]",Solubility,[2],3200 µg/mL
"CCCCN(CCCC)c1cccc(/C=C/C(=O)c2ccccc2NCCCN(C)C)c1 [B033, (E)-3-(3-Dibutylamino-phenyl)-1-[2-(3-dimethylamino-propylamino)-phenyl]-propenone]",activity against anaerobic bacteria,[1],activity against all microorganisms within the test panel
"CCCCN(CCCC)c1ccc(/C=C/C(=O)c2cccc(NC(=O)CN(C)C)c2)cc1 [B089, (E)-N-{3-[3-(4-Dibutylamino-phenyl)-acryloyl]-phenyl}-2-dimethylamino-acetamide]",MIC,"[5]; Enterococcus faecalis, ATCC29212",9.4 µM
same,MIC,[6]; Staphylococcus intermedius,4.7 µM
same,MIC,[7]; Streptococcus pneumoniae,37.5 µM
same,MIC,[8]; Enterococcus faecium,9.4 µM
same,MIC,"[9]; Staphylococcus aureus, ATCC33591",4.7 µM
same,MIC,"[10]; Staphylococcus aureus, ATCC29213",4.7 µM
"CN(C)Cc1ccccc1C(=O)/C=C/c1cc(N2CCN(C)CC2)ccc1Br [B124, (E)-3-[2-Bromo-5-(4-methyl-piperazin-1-yl)-phenyl]-1-(2-dimethylaminomethyl-phenyl)-propenone]",Solubility,[2],2000 µg/mL
"CCCCc1ccc(/C=C/C(=O)c2ccc(N(C)CCN(C)C)cc2)cc1 [B060, (E)-3-(4-Butyl-phenyl)-1-{4-[(2-dimethylamino-ethyl)-methyl-amino]-phenyl}-propenone]",activity against anaerobic bacteria,[1],activity against all microorganisms within the test panel
"CN(C)CCNc1ccc(C(=O)/C=C/c2cc(C(F)(F)F)cc(C(F)(F)F)c2)cc1 [B046, (E)-3-(3,5-Bis-trifluoromethyl-phenyl)-1-[4-(2-dimethylamino-ethylamino)-phenyl]-propenone]",activity against anaerobic bacteria,[1],activity against all microorganisms within the test panel
"COc1ccc(-c2ccccc2)cc1/C=C/C(=O)c1ccc(N(C)CCN(C)C)cc1 [B073, (E)-1-{4-[(2-Dimethylamino-ethyl)-methyl-amino]-phenyl}-3-(4-methoxy-biphenyl-3-yl)-propenone]",activity against anaerobic bacteria,[1],activity against all microorganisms within the test panel
"CN(C)CCNc1cccc(C(=O)/C=C/c2ccc(Cl)cc2Cl)c1 [B039, (E)-3-(2,4-Dichloro-phenyl)-1-[3-(2-dimethylamino-ethylamino)-phenyl]-40 propenone]",IC50,L. major promastigotes; L. major,1000 nM
same,activity against anaerobic bacteria,[1],activity against all microorganisms within the test panel
"COc1ccccc1-c1ccc(/C=C/C(=O)c2ccccc2CN(C)C)c(N2CCN(C)CC2)c1 [B096, (E)-1-(2-Dimethylaminomethyl-phenyl)-3-[2′-methoxy-3-(4-methyl-piperazin-1-yl)-biphenyl-4-yl]-propenone]",IC50,L. major promastigotes; L. major,1200 nM
"COc1ccc(/C=C/C(=O)c2ccccc2N(C)CCN(C)C)cc1 [B023, (E)-1-{2-[(2-Dimethylamino-ethyl)-methyl-amino]-phenyl}-3-(4-methoxy-phenyl)-propenone]",Solubility,[2],30600 µg/mL
"COc1ccc(C(=O)/C=C/c2cc(-c3ccccc3OC)ccc2N2CCN(C)CC2)c(F)c1 [B083, (E)-1-(2-Fluoro-4-methoxy-phenyl)-3-[2′-methoxy-4-(4-methyl-piperazin-1-yl)-biphenyl-3-yl]-propenone]",MIC,[5]; [11],18.8 µM
same,MIC,[6]; [12],9.4 µM
same,MIC,[7]; [13],37.5 µM
same,IC50,L. major promastigotes; L. major,500 nM
same,MIC,[8]; [14],9.4 µM
same,MIC,[9]; [15],9.4 µM
same,MIC,Eschericia coli ESS,9.4 µM
same,MIC,[10]; [16],4.7 µM
"COc1ccccc1-c1ccc(N2CCN(C)CC2)c(/C=C/C(=O)c2ccccc2NS(=O)(=O)c2ccccc2)c1 [B185, (E)-N-(2-{3-[2′-Methoxy-4-(4-methyl-piperazin-1-yl)-biphenyl-3-yl]-acryloyl}-phenyl)-benzenesulfonamide]",IC50,L. major promastigotes; Leishmania major,200 nM
same,Metabolic turn-over in vitro,[3],0%
"COc1ccc(C(=O)/C=C/c2cc(-c3cc(C)cc(C)c3)ccc2N2CCN(C)CC2)c(F)c1 [B182, (E)-3-[3′,5′-Dimethyl-4-(4-methyl-piperazin-1-yl)-biphenyl-3-yl]-1-(2-fluoro-4-methoxy-phenyl)-propenone]",MIC,[5]; [11],9.4 µM
same,MIC,[6]; [12],4.7 µM
same,MIC,[7]; [13],18.8 µM
same,Metabolic turn-over in vitro,[3],2%
same,MIC,[8]; [14],4.7 µM
same,MIC,[9]; [15],4.7 µM
same,MIC,Eschericia coli ESS,75 µM
same,MIC,[10]; [16],4.7 µM
